The structures appear in SMILES notation. pIC50: −log10 of the molar value. Structures can show the parent of a compound that is named as a salt.

This passage reports IC50 results from patent US10221197B2, “Phosphatidylinositol 3-kinase inhibitors” (Gilead Sciences, Inc., priority 2014, dated 2019).

Holding throughout (assay type): biochemical
One assay deals with PI3Kβ (Homo sapiens (Human), UniProt P42338). Description: TR-FRET enzymatic assay of PI3K isoforms (PI3Kβ). Conditions: TR-FRET, 2×Km ATP, 2 μM PIP2, incubated for 30 minutes at 25° C.; read-out: β IC50. As for the experimental part:
(§1) The compounds of formula (I) were characterized for their enzymatic activity against the PI3K isoforms. Certain compounds of the present application, including certain compounds of formula (II) and (III) were also characterized for their enzymatic activity against PI3K isoforms. The activities were measured using a time-resolved fluorescence resonance energy transfer (TR-FRET) assay.

In the next assay the target is PI3Kγ (Homo sapiens (Human), UniProt P48736). Description: TR-FRET enzymatic assay of PI3K isoforms (PI3Kγ). Conditions: TR-FRET, 2×Km ATP, 2 μM PIP2, PI3Kγ at 2 nM, incubated for 30 minutes at 25° C.; read-out: γ IC50. How it is done:
as §1

A further assay concerns the target PI3Kδ (Homo sapiens (Human), UniProt O00329). Nature of the assay: TR-FRET enzymatic assay of PI3K isoforms (PI3Kδ). The note with it: 2×Km ATP, 2 μM PIP2, incubated for 30 minutes at 25° C., read-out: δ IC50. As for the experimental part:
as §1

PI3Kβ, sequence (P42338 whole entry, canonical isoform): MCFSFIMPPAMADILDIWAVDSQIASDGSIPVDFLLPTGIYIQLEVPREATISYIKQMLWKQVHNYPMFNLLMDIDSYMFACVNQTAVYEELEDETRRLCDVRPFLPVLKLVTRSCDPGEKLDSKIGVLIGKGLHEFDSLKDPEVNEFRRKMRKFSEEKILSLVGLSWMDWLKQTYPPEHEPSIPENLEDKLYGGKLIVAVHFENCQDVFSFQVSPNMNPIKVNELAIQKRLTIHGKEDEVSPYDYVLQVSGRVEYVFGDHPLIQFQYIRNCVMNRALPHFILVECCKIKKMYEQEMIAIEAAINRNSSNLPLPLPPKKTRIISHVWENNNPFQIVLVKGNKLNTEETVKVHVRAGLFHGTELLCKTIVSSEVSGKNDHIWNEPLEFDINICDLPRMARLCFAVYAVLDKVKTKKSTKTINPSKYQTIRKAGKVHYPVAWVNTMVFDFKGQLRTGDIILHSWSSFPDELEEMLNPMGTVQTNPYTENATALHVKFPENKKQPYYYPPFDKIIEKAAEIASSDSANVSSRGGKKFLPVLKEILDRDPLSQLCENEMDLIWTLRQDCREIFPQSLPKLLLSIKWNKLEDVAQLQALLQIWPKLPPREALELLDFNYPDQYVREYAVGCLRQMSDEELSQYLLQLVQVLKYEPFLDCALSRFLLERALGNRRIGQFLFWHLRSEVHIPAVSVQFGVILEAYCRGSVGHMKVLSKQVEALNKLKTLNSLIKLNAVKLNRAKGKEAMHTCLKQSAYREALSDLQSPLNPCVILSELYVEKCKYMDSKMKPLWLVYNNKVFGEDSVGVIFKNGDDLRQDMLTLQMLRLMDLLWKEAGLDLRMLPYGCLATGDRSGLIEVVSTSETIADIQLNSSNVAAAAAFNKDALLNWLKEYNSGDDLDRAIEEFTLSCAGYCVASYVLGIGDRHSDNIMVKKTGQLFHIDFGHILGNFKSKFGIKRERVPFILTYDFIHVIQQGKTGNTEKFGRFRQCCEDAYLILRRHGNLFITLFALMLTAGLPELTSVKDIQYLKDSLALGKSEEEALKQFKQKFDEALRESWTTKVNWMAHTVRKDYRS
PI3Kβ, sequence (P27986 whole entry partner, canonical isoform): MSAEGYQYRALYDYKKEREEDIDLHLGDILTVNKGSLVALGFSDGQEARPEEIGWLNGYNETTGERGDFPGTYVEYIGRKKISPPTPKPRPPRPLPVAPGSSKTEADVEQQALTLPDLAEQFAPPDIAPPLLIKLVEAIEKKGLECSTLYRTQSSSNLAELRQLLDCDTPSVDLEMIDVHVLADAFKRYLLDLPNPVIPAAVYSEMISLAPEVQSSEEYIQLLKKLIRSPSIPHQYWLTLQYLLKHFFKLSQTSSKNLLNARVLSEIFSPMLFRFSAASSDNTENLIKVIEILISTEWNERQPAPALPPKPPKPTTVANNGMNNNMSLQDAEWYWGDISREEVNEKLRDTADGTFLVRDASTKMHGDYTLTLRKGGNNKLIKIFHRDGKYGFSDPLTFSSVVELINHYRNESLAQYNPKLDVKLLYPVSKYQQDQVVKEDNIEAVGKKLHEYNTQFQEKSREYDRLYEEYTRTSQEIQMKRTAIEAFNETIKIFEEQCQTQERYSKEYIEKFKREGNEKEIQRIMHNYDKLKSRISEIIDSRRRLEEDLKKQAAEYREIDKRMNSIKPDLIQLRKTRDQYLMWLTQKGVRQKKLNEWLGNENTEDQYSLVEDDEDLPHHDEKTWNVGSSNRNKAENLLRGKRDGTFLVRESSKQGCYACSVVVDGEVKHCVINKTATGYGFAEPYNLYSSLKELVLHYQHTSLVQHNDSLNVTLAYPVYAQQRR
PI3Kγ, sequence (P48736 whole entry, canonical isoform): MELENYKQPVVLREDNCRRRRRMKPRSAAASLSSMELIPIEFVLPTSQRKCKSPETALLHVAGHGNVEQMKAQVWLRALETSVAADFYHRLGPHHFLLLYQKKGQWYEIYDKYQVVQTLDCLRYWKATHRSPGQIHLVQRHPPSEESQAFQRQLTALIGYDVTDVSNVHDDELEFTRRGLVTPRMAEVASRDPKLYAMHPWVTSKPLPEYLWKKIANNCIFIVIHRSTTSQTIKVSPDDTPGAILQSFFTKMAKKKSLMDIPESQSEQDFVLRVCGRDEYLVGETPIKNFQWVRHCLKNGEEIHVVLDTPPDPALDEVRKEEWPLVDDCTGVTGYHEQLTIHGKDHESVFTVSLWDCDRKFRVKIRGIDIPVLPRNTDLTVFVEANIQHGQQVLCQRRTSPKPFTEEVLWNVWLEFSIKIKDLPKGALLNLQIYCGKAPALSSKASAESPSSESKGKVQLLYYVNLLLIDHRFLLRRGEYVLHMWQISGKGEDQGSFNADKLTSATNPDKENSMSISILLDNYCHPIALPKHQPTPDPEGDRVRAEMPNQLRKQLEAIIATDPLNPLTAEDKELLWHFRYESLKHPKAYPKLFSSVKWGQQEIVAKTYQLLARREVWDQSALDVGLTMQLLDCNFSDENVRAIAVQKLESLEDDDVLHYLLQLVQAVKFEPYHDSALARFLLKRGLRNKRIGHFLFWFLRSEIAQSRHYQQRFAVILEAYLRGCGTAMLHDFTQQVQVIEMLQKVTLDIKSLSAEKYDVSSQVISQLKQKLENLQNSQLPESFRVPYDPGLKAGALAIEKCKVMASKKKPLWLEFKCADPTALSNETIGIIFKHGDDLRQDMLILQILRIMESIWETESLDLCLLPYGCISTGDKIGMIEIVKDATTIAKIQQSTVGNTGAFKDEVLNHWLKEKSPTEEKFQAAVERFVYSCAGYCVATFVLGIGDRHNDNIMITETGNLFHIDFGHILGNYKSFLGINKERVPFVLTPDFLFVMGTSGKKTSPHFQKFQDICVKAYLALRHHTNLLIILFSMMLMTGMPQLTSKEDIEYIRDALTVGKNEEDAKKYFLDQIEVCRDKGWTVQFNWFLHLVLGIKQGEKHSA
PI3Kγ, sequence (Q8WYR1 whole entry partner, canonical isoform): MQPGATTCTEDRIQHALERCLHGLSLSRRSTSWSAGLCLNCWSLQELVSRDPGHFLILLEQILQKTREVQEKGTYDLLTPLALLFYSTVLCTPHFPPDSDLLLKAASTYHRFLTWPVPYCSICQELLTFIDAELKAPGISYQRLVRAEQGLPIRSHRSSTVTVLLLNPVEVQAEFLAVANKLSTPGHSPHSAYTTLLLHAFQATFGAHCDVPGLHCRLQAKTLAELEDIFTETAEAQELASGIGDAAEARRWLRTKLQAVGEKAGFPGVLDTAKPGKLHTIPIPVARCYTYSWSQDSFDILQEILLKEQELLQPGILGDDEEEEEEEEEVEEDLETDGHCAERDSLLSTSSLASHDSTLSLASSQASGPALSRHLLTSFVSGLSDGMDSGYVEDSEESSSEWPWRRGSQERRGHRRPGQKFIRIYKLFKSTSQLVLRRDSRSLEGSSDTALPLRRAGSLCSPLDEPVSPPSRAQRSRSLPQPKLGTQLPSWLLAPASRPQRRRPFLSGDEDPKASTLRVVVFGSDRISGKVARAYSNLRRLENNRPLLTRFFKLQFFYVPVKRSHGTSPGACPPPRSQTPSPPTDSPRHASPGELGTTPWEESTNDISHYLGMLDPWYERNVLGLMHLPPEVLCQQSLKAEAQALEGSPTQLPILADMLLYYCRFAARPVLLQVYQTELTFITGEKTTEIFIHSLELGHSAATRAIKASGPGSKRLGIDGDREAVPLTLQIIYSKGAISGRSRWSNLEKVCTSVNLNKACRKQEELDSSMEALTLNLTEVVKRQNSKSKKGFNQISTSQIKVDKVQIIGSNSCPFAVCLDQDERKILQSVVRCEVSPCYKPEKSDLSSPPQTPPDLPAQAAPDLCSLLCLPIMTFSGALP
PI3Kδ, sequence (O00329 whole entry, canonical isoform): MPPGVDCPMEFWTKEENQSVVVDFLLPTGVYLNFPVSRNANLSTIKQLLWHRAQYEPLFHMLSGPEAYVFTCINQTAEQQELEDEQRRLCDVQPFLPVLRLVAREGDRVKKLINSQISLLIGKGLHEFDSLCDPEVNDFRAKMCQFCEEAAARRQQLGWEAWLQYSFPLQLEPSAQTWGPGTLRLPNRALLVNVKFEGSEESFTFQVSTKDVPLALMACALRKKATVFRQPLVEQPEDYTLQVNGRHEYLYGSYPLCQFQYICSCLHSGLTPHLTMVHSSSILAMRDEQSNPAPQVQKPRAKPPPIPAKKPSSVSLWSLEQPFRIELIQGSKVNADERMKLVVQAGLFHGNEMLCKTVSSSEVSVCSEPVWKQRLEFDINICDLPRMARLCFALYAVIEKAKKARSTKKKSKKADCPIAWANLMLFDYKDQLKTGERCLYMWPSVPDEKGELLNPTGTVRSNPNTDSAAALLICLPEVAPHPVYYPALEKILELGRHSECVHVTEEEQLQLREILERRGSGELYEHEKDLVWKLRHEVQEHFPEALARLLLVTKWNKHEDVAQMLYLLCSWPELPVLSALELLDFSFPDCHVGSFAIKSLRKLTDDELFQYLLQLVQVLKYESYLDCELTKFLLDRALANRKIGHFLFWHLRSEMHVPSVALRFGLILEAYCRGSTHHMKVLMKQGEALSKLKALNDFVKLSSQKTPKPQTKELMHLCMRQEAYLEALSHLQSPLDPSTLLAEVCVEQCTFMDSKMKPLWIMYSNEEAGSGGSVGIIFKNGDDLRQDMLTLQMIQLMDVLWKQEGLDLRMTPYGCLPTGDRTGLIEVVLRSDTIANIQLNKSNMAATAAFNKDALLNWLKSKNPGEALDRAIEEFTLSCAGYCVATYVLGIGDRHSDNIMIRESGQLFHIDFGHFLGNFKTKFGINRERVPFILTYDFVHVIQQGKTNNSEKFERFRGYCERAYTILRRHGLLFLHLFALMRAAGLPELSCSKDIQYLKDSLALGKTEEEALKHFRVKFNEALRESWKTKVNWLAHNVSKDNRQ
PI3Kδ, sequence (P27986 whole entry partner, canonical isoform): as the sequence (P27986 whole entry partner, canonical isoform) above

On to `C[C@H](Nc1ncnc(N)c1C#N)c1nc2cccc(Cl)c2c(=O)n1-c1cccc(NC(=O)Nc2ccncc2Cl)c1` [Compound 111, (S)-1-(3-(2-(1-((6-amino-5-cyanopyrimidin-4-yl)amino)ethyl)-5-chloro-4-oxoquinazolin-3(4H)-yl)phenyl)-3-(3-chloropyridin-4-yl)urea, trifluoroacetic acid salt], for which the pIC50 on PI3Kβ is 8.40; at PI3Kγ, 5.37; on PI3Kδ it was 8.15.
As to `C[C@H](Nc1ncnc2[nH]cnc12)c1nc2cccc(Cl)c2c(=O)n1-c1cccc(NC(=O)Nc2ccncc2Cl)c1` [Compound 112, (S)-1-(3-(2-(1-((9H-purin-6-yl)amino)ethyl)-5-chloro-4-oxoquinazolin-3(4H)-yl)phenyl)-3-(3-chloropyridin-4-yl)urea], the values for the pIC50 at PI3Kβ, on PI3Kγ and on PI3Kδ were 8.22, 5.80 and 7.59, respectively.
As to `C[C@H](Nc1ncnc(N)c1C#N)c1nc2cccc(Cl)c2c(=O)n1-c1cccc(NC(=O)Nc2nnn[nH]2)c1` [Compound 114, (S)-1-(3-(2-(1-((6-amino-5-cyanopyrimidin-4-yl)amino)ethyl)-5-chloro-4-oxoquinazolin-3(4H)-yl)phenyl)-3-(1H-tetrazol-5-yl)urea], the pIC50 on PI3Kβ was 7.43; at PI3Kγ, 5.42; on PI3Kδ, 8.00.
As to `CONC(=O)Nc1cccc(-n2c([C@H](C)Nc3ncnc(N)c3C#N)nc3cccc(Cl)c3c2=O)c1` [Compound 115, (S)-1-(3-(2-(1-((6-amino-5-cyanopyrimidin-4-yl)amino)ethyl)-5-chloro-4-oxoquinazolin-3(4H)-yl)phenyl)-3-methoxyurea], the pIC50 on PI3Kβ is 7.85; on PI3Kγ, 5.43; at PI3Kδ it was 8.30.
The like results for `C[C@H](Nc1ncnc(N)c1C#N)c1nc2cccc(Cl)c2c(=O)n1-c1cccc(NC(=O)NCCN(C)C)c1` [Compound 116, (S)-1-(3-(2-(1-((6-amino-5-cyanopyrimidin-4-yl)amino)ethyl)-5-chloro-4-oxoquinazolin-3(4H)-yl)phenyl)-3-(2-(dimethylamino)ethyl)urea, trifluoroacetic acid salt] were, in that order, 8.70, < 5.00 and 8.40.
`C[C@H](Nc1ncnc(N)c1C#N)c1nc2cccc(Cl)c2c(=O)n1-c1cccc(NC(=O)NCCO)c1` [Compound 117, (S)-1-(3-(2-(1-((6-amino-5-cyanopyrimidin-4-yl)amino)ethyl)-5-chloro-4-oxoquinazolin-3(4H)-yl)phenyl)-3-(2-hydroxyethyl)urea]: the negative logarithm of the IC50 (pIC50) on PI3Kβ is 8.40; on PI3Kγ, 5.08; on PI3Kδ, 8.22.
In the case of `C[C@H](Nc1ncnc(N)c1C#N)c1nc2cccc(Cl)c2c(=O)n1-c1cccc(NC(=O)Nc2ccccc2)c1` [Compound 118, (S)-1-(3-(2-(1-((6-amino-5-cyanopyrimidin-4-yl)amino)ethyl)-5-chloro-4-oxoquinazolin-3(4H)-yl)phenyl)-3-phenylurea], the pIC50 was 8.52 at PI3Kβ, 6.00 at PI3Kγ and 8.10 at PI3Kδ.
The like results for `C[C@H](Nc1ncnc(N)c1C#N)c1nc2cccc(Cl)c2c(=O)n1-c1cccc(NC(=O)Nc2cccnc2)c1` [Compound 119, (S)-1-(3-(2-(1-((6-amino-5-cyanopyrimidin-4-yl)amino)ethyl)-5-chloro-4-oxoquinazolin-3(4H)-yl)phenyl)-3-(pyridin-3-yl)urea, trifluoroacetic acid salt] were, in that order, 8.52, 5.85 and 8.30.
For the molecule `CC(C)NC(=O)Nc1cccc(-n2c([C@H](C)Nc3ncnc(N)c3C#N)nc3cccc(Cl)c3c2=O)c1` [Compound 120, (S)-1-(3-(2-(1-((6-amino-5-cyanopyrimidin-4-yl)amino)ethyl)-5-chloro-4-oxoquinazolin-3(4H)-yl)phenyl)-3-isopropylurea], the negative logarithm of the IC50 (pIC50) at PI3Kβ was 8.05; at PI3Kγ, 5.32; at PI3Kδ, 8.15.
